Columns and labels:
Puccinia recondita = experiment: In vivo test on Puccinia recondita f. sp. tritici (wheat brown rust); conditions: 240 h, wheat plants (Scipion variety), grading 10 days after contamination, good (at least 70%) or total protection
Procedure: In vivo Test on Puccinia reconditef. Sp. tritici (Wheat Brown Rust)
The active ingredients tested are prepared by homogenisation in a mixture of acetone/tween/DMSO, then diluted with water to obtain the desired active material concentration. Wheat plants (Scipion variety) in starter cups, sown on 50/50 peat soil-pozzolana substrate and grown at 12° C., are treated at the 1-leaf stage (10 cm tall) by spraying with the active ingredient prepared as described above. Plants, used as controls, are treated with the mixture of acetone/tween/DMSO/water not containing the active material.
After 24 hours, the plants are contaminated by spraying the leaves with an aqueous suspension of Puccinia recondita spores (100,000 spores per ml). The spores are collected from a 10-day-old contaminated wheat and are suspended in water containing 2.5 ml/of tween 80 10%. The contaminated wheat plants are incubated for 24 hours at 20° C. and at 100% relative humidity, and then for 10 days at 20° C. and at 70% relative humidity. Grading is carried out 10 days after the contamination, in comparison with the control plants.

[1] = logP by HPLC on reversed-phase column (C 18), EEC Directive 79/B31 Annex V.A8, methods A and B; type: physicochemical; conditions: reversed-phase HPLC column (C 18), linear gradient 10% to 90% acetonitrile
Procedure: Calibration was carried out using unbranched alkan-2-ones (having 3 to 16 carbon atoms) with known logP values (determination of the logP values by the retention times using linear interpolation between two successive alkanones).

[2] = test system: Mycosphaerella graminicola; experiment: In vivo test on Mycosphaerella graminicola (wheat leaf spot); conditions: Zymoseptoria tritici, wheat plants (Scipion variety), grading 21 to 28 days after contamination, good (at least 70%) or total protection, read-out: protection (% of efficacy)
Procedure: In vivo Test on Mycosphaerella graminicola (Wheat Leaf Spot)
The active ingredients tested are prepared by homogenisation in a mixture of acetone/tween/DMSO, and then diluted with water to obtain the desired active material concentration.
Wheat plants (Scipion variety), sown on a 50/50 peat soil-pozzolana substrate in starter cups and grown at 12° C., are treated at the 1-leaf stage (10 cm tall) by spraying with the active ingredient prepared as described above.
Plants, used as controls, are treated with the mixture of acetone/tween/DMSO/water not containing the active material.
After 24 hours, the plants are contaminated by spraying them with an aqueous suspension of Mycosphaerella graminicola spores (500 000 spores per ml). The spores are collected from a 7-day-old culture. The contaminated wheat plants are incubated for 72 hours at 18° C. and at 100% relative humidity, and then for 21 to 28 days at 90% relative humidity.
Grading (% of efficacy) is carried out 21 to 28 days after the contamination, in comparison with the control plants.

[3] = LogP method B: HPLC reversed-phase C 18, 40° C., 0.1% aqueous formic acid / acetonitrile
[4] = HPLC reversed-phase C 18, method B: 40° C., 0.1% aqueous formic acid and acetonitrile
[5] = HPLC reversed-phase C 18, method A: 43° C., 0.1% aqueous phosphoric acid, acetonitrile
[6] = LogP method A: HPLC reversed-phase C 18, 43° C., 0.1% aqueous phosphoric acid / acetonitrile

chromatographic logP [1, 3]	SMILES	pest or weed control at 500 ppm (Puccinia recondita) [%]	pest or weed control at 500 ppm [2] [%]	further results
3.9	CCOc1nn(C)cc1C(=O)N(C1CC1)S(=O)(=O)c1ccc(Oc2ccccc2)c(O)c1 [Compound 533]	≥ 70		
4.9	CCOc1nn(C)cc1C(=O)N(C1CC1)S(=O)(=O)c1ccc(Oc2ccc(Br)c(O)c2)c(Cl)c1 [Compound 558]	≥ 70		
	CCOc1nn(C)cc1C(=O)N(C1CC1)S(=O)(=O)c1ccc2c(c1)CCC(C)(C)O2 [Compound 524]	≥ 70	≥ 70	
3.6	CCOc1nn(C)cc1C(=O)N(C1CC1)S(=O)(=O)c1ccc(Oc2ccccc2)cc1O [Compound 530]		≥ 70	
4.1	CCOc1nn(C)cc1C(=O)N(C1CC1)S(=O)(=O)C1C=CC(OC2=CC=C(C(F)(F)F)CC2)=CC1O (centres unmarked) [Compound 538]		≥ 70	
4.8	CCOc1nn(C)cc1C(=O)N(C1CC1)S(=O)(=O)c1ccc(Oc2ccc(Cl)c(Cl)c2)c(Cl)c1 [Compound 557]	≥ 70		
4.7	CCOc1nn(C)cc1C(=O)N(C1CC1)S(=O)(=O)c1ccc(Oc2ccc(O)cc2O)c(O)c1 [Compound 555]	≥ 70		
	COc1nn(C)cc1C(=O)N(C1CC1)S(=O)(=O)c1ccc(Oc2cccc(C(F)(F)F)c2)cc1Cl [Compound 508]		≥ 70	
	Cn1nc(C(F)(F)F)c(C(=O)N(C2CC2)S(=O)(=O)c2ccc(F)c(F)c2F)c1F [Compound 366]	≥ 70		
	CCCOc1nn(C)cc1C(=O)N(C1CC1)S(=O)(=O)c1ccc(Oc2cccc(C(F)(F)F)c2)cc1 [Compound 318]	≥ 70		
	CCCOc1nn(C)cc1C(=O)N(C1CC1)S(=O)(=O)c1ccc(Oc2ccc(C(F)(F)F)cc2)cc1 [Compound 320]	≥ 70		
	CCCOc1nn(C)cc1C(=O)N(C1CC1)S(=O)(=O)c1ccc(Oc2ccc(Br)cc2)cc1 [Compound 328]	≥ 70		
	Cc1nc(C(=O)N(C2CC2)S(=O)(=O)c2ccc(Oc3ccccc3)cc2)c(C(F)(F)F)o1 [Compound 49]	≥ 70	≥ 70	
	COc1nn(C)cc1C(=O)N(C1CC1)S(=O)(=O)c1ccc2c(c1)CCC(C)(C)O2 [Compound 457]	≥ 70	≥ 70	
	CCc1nn(C)c(F)c1C(=O)N(C1CC1)S(=O)(=O)c1ccccc1C(F)(F)F [Compound 377]		≥ 70	chromatographic logP [1, 4]: 2.9
	CCCOc1nn(C)cc1C(=O)N(C1CC1)S(=O)(=O)c1ccc(Oc2ccccc2)cc1 [Compound 281]	≥ 70		
4.4	CCOc1nn(C)cc1C(=O)N(C1CC1)S(=O)(=O)c1ccc(Oc2ccc(F)c(O)c2)c(O)c1 [Compound 548]	≥ 70		
	Cn1nc(C(F)(F)F)c(C(=O)N(C2CC2)S(=O)(=O)c2cccc(Cl)c2F)c1F [Compound 358]		≥ 70	chromatographic logP [1, 4]: 3.2
	CCc1nn(C)c(F)c1C(=O)N(C1CC1)S(=O)(=O)c1ccc(F)cc1Br [Compound 380]	≥ 70		chromatographic logP [1, 4]: 2.9
4.3	CCOc1nn(C)cc1C(=O)N(C1CC1)S(=O)(=O)c1ccc(Oc2ccc(O)cc2)c(O)c1 [Compound 545]	≥ 70		
4.5	CCOc1nn(C)cc1C(=O)N(C1CC1)S(=O)(=O)c1ccc(OC2=CC(OC(F)(F)F)=CCC2)c(O)c1 [Compound 554]	≥ 70		
	COc1nn(C)cc1C(=O)N(C1CC1)S(=O)(=O)c1ccc(Oc2ccc(Cl)c(Cl)c2)c(Cl)c1 [Compound 513]	≥ 70		
	CCc1nn(C)c(F)c1C(=O)N(C1CC1)S(=O)(=O)c1ccc(Oc2cccc(C)c2)cc1 [Compound 578]		≥ 70	
	CCOc1nn(C)cc1C(=O)N(C1CC1)S(=O)(=O)c1ccc(Oc2cccc(C(F)(F)F)c2)cc1 [Compound 264]	≥ 70	≥ 70	
	COc1nn(C)cc1C(=O)N(C1CC1)S(=O)(=O)c1ccc(Oc2cccc(C(F)(F)F)c2F)cc1Cl [Compound 519]		≥ 70	
4.5	CCOc1nn(C)cc1C(=O)N(C1CC1)S(=O)(=O)c1ccc(Oc2cccc(Br)c2)c(O)c1 [Compound 551]	≥ 70		

chromatographic logP [1, 3]	SMILES	pest or weed control at 500 ppm (Puccinia recondita) [%]	pest or weed control at 500 ppm [2] [%]	further results
3.5	CCc1nn(C)c(F)c1C(=O)N(C1CC1)S(=O)(=O)c1cnc(O)c(Br)c1 [Compound 448]	≥ 70		
4	CCOc1nn(C)cc1C(=O)N(C1CC1)S(=O)(=O)c1ccc(Oc2ccc(O)cc2)cc1O [Compound 535]		≥ 70	
	CCCCOc1ccc(S(=O)(=O)N(C(=O)c2cn(C)nc2OCCC)C2CC2)cc1 [Compound 309]	≥ 70		
	CCOc1nn(C)cc1C(=O)N(C1CC1C)S(=O)(=O)c1ccc(Oc2ccccc2)cc1 (centres unmarked) [Compound 675]		≥ 70	
4	CC/C=N/N(C)/C(F)=C/C(=O)N(C1CC1)S(=O)(=O)c1csc(O)c1O [Compound 438]		≥ 70	
3.8	COc1nn(C)cc1C(=O)N(C1CC1)S(=O)(=O)c1ccc(Oc2cccc(Br)c2)cc1Br [Compound 473]			
	Cn1cc(C(=O)N(C2CC2)S(=O)(=O)c2ccc(Oc3ccccc3)cc2)c(C(F)F)n1 [Compound 249]		≥ 70	
	Cn1cc(C(=O)N(C2CC2)S(=O)(=O)c2ccccc2O)c(C(F)(F)F)n1 [Compound 200]			chromatographic logP [1, 5]: 2.71
4.2	COc1nn(C)cc1C(=O)N(C1CC1)S(=O)(=O)c1ccc(Oc2ccc(Cl)c(C(F)(F)F)c2)cc1Br [Compound 479]			
	Cc1nc(C(=O)N(C2CC2)S(=O)(=O)c2ccc(O)cc2O)cs1 [Compound 71]			chromatographic logP [1, 5]: 3.03
4.3	COc1nn(C)cc1C(=O)N(C1CC1)S(=O)(=O)c1ccc(Oc2cc(O)cc(O)c2)cc1Br [Compound 481]			
	CCc1c(C(=O)N(C2CC2)S(=O)(=O)c2cccc(O)c2)sc(=O)n1C1CC1 [Compound 615]			chromatographic logP [1, 6]: 2.01
	Cc1c(C(=O)N(C2CC2)S(=O)(=O)c2ccc(O)c(C(F)(F)F)c2)sc(=O)n1C [Compound 622]			chromatographic logP [1, 6]: 2.01
	Cc1nn(C)c(F)c1C(=O)N(C1CC1)S(=O)(=O)c1c(F)cccc1F [Compound 217]			chromatographic logP [1, 5]: 2.25
	Cn1nc(C2CC2)c(C(=O)N(C2CC2)S(=O)(=O)c2ccc(O)c(O)c2O)c1F [Compound 224]			chromatographic logP [1, 4]: 3.9
	Cc1cccc(Oc2ccc(S(=O)(=O)N(C(=O)c3c(C)nn(C)c3F)C3CC3)cc2)c1 [Compound 583]		≥ 70	
	CCCOc1nn(C)cc1C(=O)N(C1CC1)S(=O)(=O)c1ccc(Oc2ccc(Br)cc2)cc1Br [Compound 300]			chromatographic logP [1, 4]: 4.6
3.1	Cc1cnn(C)c1C(=O)N(C1CC1)S(=O)(=O)c1cccc(O)c1O [Compound 658]			
	Cc1nc(C(=O)N(C2CC2)S(=O)(=O)c2ccc(Oc3ccccc3)cc2)c(C)o1 [Compound 45]		≥ 70	
2.2	CCOc1nn(C)cc1C(=O)N(C1CC1)S(=O)(=O)c1ccc(Oc2ccc(C)cc2)cc1Cl [Compound 525]			
2.6	Cc1oncc1C(=O)N(C1CC1)S(=O)(=O)c1ccc(O)c(O)c1O [Compound 604]			
	Cc1noc(C)c1C(=O)N(C1CC1)S(=O)(=O)c1ccc(C(F)(F)F)cc1 [Compound 588]			chromatographic logP [1, 6]: 3.46
	COc1cscc1C(=O)N(C1CC1)S(=O)(=O)c1ccc(Oc2ccccc2)cc1 [Compound 26]			chromatographic logP [1, 4]: 3.9
	Cn1nc(C(F)(F)F)c(C(=O)N(C2CC2)S(=O)(=O)c2ccc(Oc3cccc(C#N)c3Cl)cc2)c1F [Compound 371]			chromatographic logP [1, 4]: 3.7
	COc1nn(C)c(O)c1C(=O)N(C1CC1)S(=O)(=O)c1cccc(O)c1O [Compound 278]			chromatographic logP [1, 4]: 3.2

Reference: US7932283B2, “Fungicide N-cyclopropyl-sulfonylamide derivatives” (Bayer Cropscience AG, priority 2006, dated 2011)
